Source: patent US20240150377A1, “MODULATORS OF CYSTIC FIBROSIS TRANSMEMBRANE CONDUCTANCE REGULATOR” (VERTEX PHARMACEUTICALS INCORPORATED, priority 2020, published 2024)

target: T1, CFTR (Homo sapiens, UniProt P13569, DEL508-508); assay: HBE2 assay: Ussing chamber assay of CFTR-mediated short-circuit currents; type: cell-based; conditions: 3 μM; F508del/MF-HBE cells; with 44 nM potentiator; 18-24 hours; 20% human serum
T1 construct: endogenous in cells; host or cells: primary human bronchial epithelial cells from CF subjects (F508del/MF-HBE), differentiated at air-liquid interface
T1 sequence (P13569 with tags, fused parts or gaps DEL508-508): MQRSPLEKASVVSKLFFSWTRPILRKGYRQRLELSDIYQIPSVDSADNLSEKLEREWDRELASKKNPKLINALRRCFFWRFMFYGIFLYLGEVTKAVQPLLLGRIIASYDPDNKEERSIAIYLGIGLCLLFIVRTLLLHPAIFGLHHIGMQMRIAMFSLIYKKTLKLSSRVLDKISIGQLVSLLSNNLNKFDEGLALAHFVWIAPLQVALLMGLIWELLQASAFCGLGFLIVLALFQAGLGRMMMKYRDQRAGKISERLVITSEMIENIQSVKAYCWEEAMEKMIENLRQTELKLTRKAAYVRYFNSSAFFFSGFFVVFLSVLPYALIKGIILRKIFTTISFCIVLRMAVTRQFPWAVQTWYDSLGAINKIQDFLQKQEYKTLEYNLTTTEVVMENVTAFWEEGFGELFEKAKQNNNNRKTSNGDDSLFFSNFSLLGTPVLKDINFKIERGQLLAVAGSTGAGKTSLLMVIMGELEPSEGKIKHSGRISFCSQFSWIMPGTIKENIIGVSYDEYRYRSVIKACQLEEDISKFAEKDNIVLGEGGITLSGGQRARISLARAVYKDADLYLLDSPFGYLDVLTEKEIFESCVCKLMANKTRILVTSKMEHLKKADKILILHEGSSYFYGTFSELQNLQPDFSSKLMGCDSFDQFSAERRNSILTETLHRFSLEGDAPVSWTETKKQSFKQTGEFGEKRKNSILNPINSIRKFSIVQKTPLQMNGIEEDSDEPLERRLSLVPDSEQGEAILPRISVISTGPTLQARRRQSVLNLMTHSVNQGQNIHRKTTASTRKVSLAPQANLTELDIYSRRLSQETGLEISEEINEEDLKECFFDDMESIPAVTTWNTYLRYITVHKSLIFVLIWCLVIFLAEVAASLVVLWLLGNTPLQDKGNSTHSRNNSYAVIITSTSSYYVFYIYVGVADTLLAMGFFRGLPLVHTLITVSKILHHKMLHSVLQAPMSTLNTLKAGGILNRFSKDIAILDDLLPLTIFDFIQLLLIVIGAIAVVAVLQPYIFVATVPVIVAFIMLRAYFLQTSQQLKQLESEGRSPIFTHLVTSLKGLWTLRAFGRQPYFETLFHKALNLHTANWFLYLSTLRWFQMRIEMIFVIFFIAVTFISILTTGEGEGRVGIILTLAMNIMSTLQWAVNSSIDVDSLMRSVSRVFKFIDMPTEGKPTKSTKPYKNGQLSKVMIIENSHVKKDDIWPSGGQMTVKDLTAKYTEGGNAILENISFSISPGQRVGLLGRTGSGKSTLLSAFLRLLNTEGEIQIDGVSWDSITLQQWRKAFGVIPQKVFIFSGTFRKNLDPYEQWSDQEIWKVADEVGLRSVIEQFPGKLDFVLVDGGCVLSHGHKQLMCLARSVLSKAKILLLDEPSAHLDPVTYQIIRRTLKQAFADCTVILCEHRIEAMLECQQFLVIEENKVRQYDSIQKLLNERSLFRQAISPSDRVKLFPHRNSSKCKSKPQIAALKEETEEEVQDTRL
Method in brief: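 F508del/MF-HBE cultured >14 days at air-liquid interface, mounted in Ussing chambers; transepithelial short-circuit current recorded under voltage clamp (Vhold=0 mV) at 37 °C. CFTR-mediated ISC (μA/cm^2) taken as peak forskolin response relative to steady-state current after inhibition; corrector activity assessed this way.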

| Structure (SMILES) | HBE2 Activity at 3 μM (%) |
| --- | --- |
| Cc1cccc(C)c1-c1cc2nc(n1)NS(=O)(=O)c1cccc(c1)C(=O)N(Cc1ncc(OC(C)C)cn1)[C@H](CCC1CC1)CO2 [Compound 1597] | +++ (+++ is >60+) |
| CCC(C)Oc1cnc(CN2C(=O)c3cccc(c3)S(=O)(=O)Nc3nc(cc(-c4c(C)cccc4C)n3)OC[C@H]2CCC2CC2)nc1 (stereo partly drawn) [Compound 1598] | +++ (+++ is >60+) |
| CCOc1cnc(CN2C(=O)c3cccc(c3)S(=O)(=O)Nc3nc(cc(-c4c(C)cccc4C)n3)OC[C@H]2CCC(C)C)nc1 [Compound 1599] | +++ (+++ is >60+) |
| CCCOc1cnc(CN2C(=O)c3cccc(c3)S(=O)(=O)Nc3nc(cc(-c4c(C)cccc4C)n3)OC[C@H]2CCC2CC2)nc1 [Compound 1600] | +++ (+++ is >60+) |
| Cc1cccc(C)c1-c1cc2nc(n1)NS(=O)(=O)c1cccc(c1)C(=O)N(Cc1cncc(OC3CCC3)n1)[C@H](CC(C)(C)C)CO2 [Compound 1601] | +++ (+++ is >60+) |
| Cc1cccc(C)c1-c1cc2nc(n1)NS(=O)(=O)c1cccc(c1)C(=O)N(Cc1cncc(N3CCCC3c3ccnn3C)n1)[C@H](CC(C)(C)C)CO2 (stereo partly drawn) [Compound 1605] | +++ (+++ is >60+) |
| Cc1cccc(C)c1-c1cc2nc(n1)NS(=O)(=O)c1cccc(c1)C(=O)N(Cc1cncc(N3CCCC3c3ccnn3C)n1)[C@H](CC(C)(C)C)CO2 (stereo partly drawn) [Compound 1606] | +++ (+++ is >60+) |
| CO[C@H]1C[C@@H](N(C)c2cncc(CN3C(=O)c4cccc(c4)S(=O)(=O)Nc4nc(cc(-c5c(C)cccc5C)n4)OC[C@H]3CC(C)(C)C)n2)C1 [Compound 1611] | +++ (+++ is >60+) |
| Cc1cccc(C)c1-c1cc2nc(n1)NS(=O)(=O)c1cccc(c1)C(=O)N(Cc1cnc(N(C)C3CCC3)cn1)[C@H](CC(C)(C)C)CO2 [Compound 1612] | +++ (+++ is >60+) |
| Cc1cccc(C)c1-c1cc2nc(n1)NS(=O)(=O)c1cccc(c1)C(=O)N(Cc1cncc(N(C)CC3(C)COC3)n1)[C@H](CC(C)(C)C)CO2 [Compound 1613] | +++ (+++ is >60+) |
| Cc1cccc(C)c1-c1cc2nc(n1)NS(=O)(=O)c1cccc(c1)C(=O)N(Cc1cncc(N(C)CC3CCC3)n1)[C@H](CC(C)(C)C)CO2 [Compound 1614] | +++ (+++ is >60+) |
| Cc1cccc(C)c1-c1cc2nc(n1)NS(=O)(=O)c1cccc(c1)C(=O)N(Cc1ccnc(N(C)C3CCC3)n1)[C@H](CC(C)(C)C)CO2 [Compound 1616] | +++ (+++ is >60+) |
| CC[C@@]1(COC)CCCN1c1cccc(CN2C(=O)c3cccc(c3)S(=O)(=O)Nc3nc(cc(-c4c(C)cccc4C)n3)OC[C@H]2CC(C)(C)C)n1 [Compound 1617] | +++ (+++ is >60+) |
| COC[C@H]1C[C@@H](N(C)c2cncc(CN3C(=O)c4cccc(c4)S(=O)(=O)Nc4nc(cc(-c5c(C)cccc5C)n4)OC[C@H]3CC(C)(C)C)n2)C1 [Compound 1619] | +++ (+++ is >60+) |
| COC[C@H]1C[C@H](N(C)c2cncc(CN3C(=O)c4cccc(c4)S(=O)(=O)Nc4nc(cc(-c5c(C)cccc5C)n4)OC[C@H]3CC(C)(C)C)n2)C1 [Compound 1620] | +++ (+++ is >60+) |
| Cc1cccc(C)c1-c1cc2nc(n1)NS(=O)(=O)c1cccc(c1)C(=O)N(Cc1cncc(N3CCC34COC4)n1)[C@H](CC(C)(C)C)CO2 [Compound 1624] | +++ (+++ is >60+) |
| Cc1cccc(C)c1-c1cc2nc(n1)NS(=O)(=O)c1cccc(c1)C(=O)N(Cc1cncc(N3CCCC34CCC4)n1)[C@H](CC(C)(C)C)CO2 [Compound 1625] | +++ (+++ is >60+) |
| Cc1cccc(C)c1-c1cc2nc(n1)NS(=O)(=O)c1cccc(c1)C(=O)N(Cc1cncc(N3CCCCC34CCC4)n1)[C@H](CC(C)(C)C)CO2 [Compound 1626] | +++ (+++ is >60+) |
| Cc1cccc(C)c1-c1cc2nc(n1)NS(=O)(=O)c1cccc(c1)C(=O)N(Cc1cncc(N3CCOCC34CCC4)n1)[C@H](CC(C)(C)C)CO2 [Compound 1627] | +++ (+++ is >60+) |
| Cc1cccc(C)c1-c1cc2nc(n1)NS(=O)(=O)c1cccc(c1)C(=O)N(Cc1cncc(N(C)CC(=O)N(C)C)n1)[C@H](CC(C)(C)C)CO2 [Compound 1630] | ++ (++ is 30-60%) |

| Structure (SMILES) | HBE2 Activity at 3 μM (%) |
| --- | --- |
| CO[C@H]1C[C@H](CN(C)c2cncc(CN3C(=O)c4cccc(c4)S(=O)(=O)Nc4nc(cc(-c5c(C)cccc5C)n4)OC[C@H]3CC(C)(C)C)n2)C1 [Compound 1631] | +++ (+++ is >60+) |
| CO[C@H](C)CN(C)c1cncc(CN2C(=O)c3cccc(c3)S(=O)(=O)Nc3nc(cc(-c4c(C)cccc4C)n3)OC[C@H]2CC(C)(C)C)n1 [Compound 1633] | +++ (+++ is >60+) |
| COCC1(N(C)c2cncc(CN3C(=O)c4cccc(c4)S(=O)(=O)Nc4nc(cc(-c5c(C)cccc5C)n4)OC[C@H]3CC(C)(C)C)n2)CCC1 [Compound 1635] | +++ (+++ is >60+) |
| Cc1cccc(C)c1-c1cc2nc(n1)NS(=O)(=O)c1cccc(c1)C(=O)N(Cc1cncc(N(C)c3cnn(C)c3)n1)[C@H](CC(C)(C)C)CO2 [Compound 1636] | +++ (+++ is >60+) |
| Cc1cccc(C)c1-c1cc2nc(n1)NS(=O)(=O)c1cccc(c1)C(=O)N(Cc1cncc(N3CCC4C3CC(=O)N4C)n1)[C@H](CC(C)(C)C)CO2 (stereo partly drawn) [Compound 1639] | +++ (+++ is >60+) |
| CCCOc1cnc(CN2C(=O)c3cccc(c3)S(=O)(=O)Nc3nc(cc(-c4c(C)cccc4C)n3)OC[C@H]2CC2(C)CCC2)nc1 [Compound 1641] | +++ (+++ is >60+) |
| Cc1cccc(C)c1-c1cc2nc(n1)NS(=O)(=O)c1cccc(c1)C(=O)N(Cc1cncc(N3CCC4OCCC43)n1)[C@H](CC(C)(C)C)CO2 (stereo partly drawn) [Compound 1642] | +++ (+++ is >60+) |
| Cc1cccc(C)c1-c1cc2nc(n1)NS(=O)(=O)c1cccc(c1)C(=O)N(Cc1cncc(N3CCC4OCCC43)n1)[C@H](CC(C)(C)C)CO2 (stereo partly drawn) [Compound 1643] | +++ (+++ is >60+) |
| Cc1cccc(C)c1-c1cc2nc(n1)NS(=O)(=O)c1cccc(c1)C(=O)N(Cc1cncc(N3CC(=O)N(C)C[C@H]3C)n1)[C@H](CC(C)(C)C)CO2 [Compound 1644] | +++ (+++ is >60+) |
| CCN(c1nc(CN2C(=O)c3cccc(c3)S(=O)(=O)Nc3nc(cc(-c4c(C)cccc4C)n3)OC[C@H]2CC(C)(C)C)co1)C1CCC1 [Compound 1645] | +++ (+++ is >60+) |
| Cc1cccc(C)c1-c1cc2nc(n1)NS(=O)(=O)c1cccc(c1)C(=O)N(Cc1coc(N(C)CC3CCC3)n1)[C@H](CC(C)(C)C)CO2 [Compound 1646] | +++ (+++ is >60+) |
| Cc1cccc(C)c1-c1cc2nc(n1)NS(=O)(=O)c1cccc(c1)C(=O)N(Cc1coc(N(C)C3CC(F)(F)C3)n1)[C@H](CC(C)(C)C)CO2 [Compound 1647] | +++ (+++ is >60+) |
| Cc1cccc(C)c1-c1cc2nc(n1)NS(=O)(=O)c1cccc(c1)C(=O)N(Cc1cncc(N(C)CCN(C)C(=O)OC(C)(C)C)n1)[C@H](CC(C)(C)C)CO2 [Compound 1648] | +++ (+++ is >60+) |
| Cc1cccc(C)c1-c1cc2nc(n1)NS(=O)(=O)c1cccc(c1)C(=O)N(Cc1cncc(N(C)CCOC(C)(C)C)n1)[C@H](CC(C)(C)C)CO2 [Compound 1650] | +++ (+++ is >60+) |
| Cc1cccc(C)c1-c1cc2nc(n1)NS(=O)(=O)c1cccc(c1)C(=O)N(Cc1nc(N(C)C3CCC3)c(C)nc1C)[C@H](CC(C)(C)C)CO2 [Compound 1651] | +++ (+++ is >60+) |
| Cc1cccc(C)c1-c1cc2nc(n1)NS(=O)(=O)c1cccc(c1)C(=O)N(Cc1cncc(N3CCCC3=O)n1)[C@H](CC(C)(C)C)CO2 [Compound 1652] | +++ (+++ is >60+) |
| Cc1cccc(C)c1-c1cc2nc(n1)NS(=O)(=O)c1cccc(c1)C(=O)N(Cc1cncc(N3C(=O)OC[C@H]3C)n1)[C@H](CC(C)(C)C)CO2 [Compound 1653] | +++ (+++ is >60+) |
| Cc1cccc(C)c1-c1cc2nc(n1)NS(=O)(=O)c1cccc(c1)C(=O)N(Cc1cnc(N3CC(C)(C)C3)cn1)[C@H](CC(C)(C)C)CO2 [Compound 1654] | +++ (+++ is >60+) |
| Cc1cccc(C)c1-c1cc2nc(n1)NS(=O)(=O)c1cccc(c1)C(=O)N(Cc1ccc(N3CC(C)(C)C3)cn1)[C@H](CC(C)(C)C)CO2 [Compound 1655] | +++ (+++ is >60+) |

same assay, conditions: F508del/MF-HBE cells; with 44 nM potentiator; 18-24 hours; 20% human serum

| Structure (SMILES) | EC50 |
| --- | --- |
| Cc1cccc(C)c1-c1cc2nc(n1)NS(=O)(=O)c1cccc(c1)C(=O)N(Cc1cncc(N(C)C3CC(F)(F)C3)n1)[C@H](CC(C)(C)C)CO2 [Compound 1602] | < 1000 nM |
| Cc1cccc(C)c1-c1cc2nc(n1)NS(=O)(=O)c1cccc(c1)C(=O)N(Cc1cncc(NC3CCC3)n1)[C@H](CC(C)(C)C)CO2 [Compound 1603] | < 1000 nM |
| Cc1cccc(C)c1-c1cc2nc(n1)NS(=O)(=O)c1cccc(c1)C(=O)N(Cc1cncc(N3CCC34CCC4)n1)[C@H](CC(C)(C)C)CO2 [Compound 1604] | < 1000 nM |

same assay, conditions: F508del/MF-HBE cells; with 44 nM potentiator; 18-24 hours; 20% human serum; read-out: HBE2 Max activity (%)

| Structure (SMILES) | Emax |
| --- | --- |
| Cc1cccc(C)c1-c1cc2nc(n1)NS(=O)(=O)c1cccc(c1)C(=O)N(Cc1cncc(N(C)C3CC(F)(F)C3)n1)[C@H](CC(C)(C)C)CO2 [Compound 1602] | > 60% |
| Cc1cccc(C)c1-c1cc2nc(n1)NS(=O)(=O)c1cccc(c1)C(=O)N(Cc1cncc(NC3CCC3)n1)[C@H](CC(C)(C)C)CO2 [Compound 1603] | > 60% |
| Cc1cccc(C)c1-c1cc2nc(n1)NS(=O)(=O)c1cccc(c1)C(=O)N(Cc1cncc(N3CCC34CCC4)n1)[C@H](CC(C)(C)C)CO2 [Compound 1604] | > 60% |
